Columns and labels:
[1] = target: T1, Phosphatidylinositol 5-phosphate 4-kinase type-2 beta (Homo sapiens) (UniProt P78356); settings: at 10 µM
T1 sequence (whole entry): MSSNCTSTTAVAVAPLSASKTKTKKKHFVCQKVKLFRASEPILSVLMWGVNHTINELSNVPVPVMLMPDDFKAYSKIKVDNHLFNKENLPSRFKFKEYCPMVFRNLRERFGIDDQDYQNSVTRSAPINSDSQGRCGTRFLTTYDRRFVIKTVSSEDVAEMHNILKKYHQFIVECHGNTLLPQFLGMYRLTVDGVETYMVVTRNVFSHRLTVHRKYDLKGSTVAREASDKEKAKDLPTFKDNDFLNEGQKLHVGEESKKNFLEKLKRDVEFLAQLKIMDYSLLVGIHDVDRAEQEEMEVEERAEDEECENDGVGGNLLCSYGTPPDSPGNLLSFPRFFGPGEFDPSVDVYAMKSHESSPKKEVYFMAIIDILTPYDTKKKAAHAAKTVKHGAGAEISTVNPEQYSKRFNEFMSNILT

[2] = target: T2, Ephrin type-B receptor 4 (Homo sapiens) (UniProt P54760); experiment: Selectivity interaction (KinomeScan (DiscoverX)) EUB0000229b EPHB4; settings: at 10 µM
T2 sequence (whole entry): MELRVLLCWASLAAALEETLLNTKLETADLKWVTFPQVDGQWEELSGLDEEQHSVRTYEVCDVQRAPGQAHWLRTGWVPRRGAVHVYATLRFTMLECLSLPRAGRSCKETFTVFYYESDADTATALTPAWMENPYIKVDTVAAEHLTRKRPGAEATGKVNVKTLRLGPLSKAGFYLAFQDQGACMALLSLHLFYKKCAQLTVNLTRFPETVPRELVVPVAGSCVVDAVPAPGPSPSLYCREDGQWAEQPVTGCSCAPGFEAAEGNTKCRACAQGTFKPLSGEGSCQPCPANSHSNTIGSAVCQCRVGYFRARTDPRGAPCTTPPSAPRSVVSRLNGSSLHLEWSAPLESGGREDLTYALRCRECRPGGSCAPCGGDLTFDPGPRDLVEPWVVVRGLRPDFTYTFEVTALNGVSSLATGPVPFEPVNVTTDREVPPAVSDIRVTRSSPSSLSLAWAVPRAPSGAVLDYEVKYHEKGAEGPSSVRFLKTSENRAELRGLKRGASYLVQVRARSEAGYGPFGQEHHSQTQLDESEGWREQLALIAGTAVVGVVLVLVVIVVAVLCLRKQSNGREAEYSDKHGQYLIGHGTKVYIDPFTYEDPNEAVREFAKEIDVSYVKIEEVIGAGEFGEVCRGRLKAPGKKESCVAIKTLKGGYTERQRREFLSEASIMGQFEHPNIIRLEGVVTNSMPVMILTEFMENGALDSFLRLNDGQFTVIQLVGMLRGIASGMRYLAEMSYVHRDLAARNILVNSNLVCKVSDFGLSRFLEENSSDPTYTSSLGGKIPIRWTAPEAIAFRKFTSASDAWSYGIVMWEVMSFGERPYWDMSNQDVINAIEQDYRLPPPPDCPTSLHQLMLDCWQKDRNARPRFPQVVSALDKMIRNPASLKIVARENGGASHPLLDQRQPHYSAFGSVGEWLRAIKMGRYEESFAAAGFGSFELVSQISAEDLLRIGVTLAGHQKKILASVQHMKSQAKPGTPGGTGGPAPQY

[3] = target: Phosphatidylinositol 4-kinase type 2-alpha (Homo sapiens) (UniProt Q9BTU6); experiment: Selectivity interaction (Adapta Assay) EUB0001632a PI4K2A; settings: at 10 µM
Chain of Phosphatidylinositol 4-kinase type 2-alpha (Homo sapiens) (Q9BTU6 whole entry): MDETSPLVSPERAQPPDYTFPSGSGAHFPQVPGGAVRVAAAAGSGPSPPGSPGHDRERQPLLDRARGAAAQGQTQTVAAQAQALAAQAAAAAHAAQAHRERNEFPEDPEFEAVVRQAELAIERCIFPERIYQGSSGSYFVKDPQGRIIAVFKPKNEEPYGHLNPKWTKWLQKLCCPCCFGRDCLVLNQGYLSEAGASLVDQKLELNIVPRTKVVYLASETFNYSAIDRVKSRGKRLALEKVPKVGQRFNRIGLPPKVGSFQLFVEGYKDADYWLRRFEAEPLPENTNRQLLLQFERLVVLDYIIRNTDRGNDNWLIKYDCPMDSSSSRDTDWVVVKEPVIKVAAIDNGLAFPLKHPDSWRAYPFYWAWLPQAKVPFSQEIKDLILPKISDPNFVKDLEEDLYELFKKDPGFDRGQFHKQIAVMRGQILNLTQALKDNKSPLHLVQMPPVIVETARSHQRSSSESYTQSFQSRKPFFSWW

[4] = target: Calcium/calmodulin-dependent protein kinase kinase 2 (Homo sapiens) (UniProt Q96RR4); experiment: Selectivity interaction (KinomeScan (DiscoverX)) EUB0000607a CAMKK2; settings: at 10 µM
Chain of Calcium/calmodulin-dependent protein kinase kinase 2 (Homo sapiens) (Q96RR4 2-588 limits assumed): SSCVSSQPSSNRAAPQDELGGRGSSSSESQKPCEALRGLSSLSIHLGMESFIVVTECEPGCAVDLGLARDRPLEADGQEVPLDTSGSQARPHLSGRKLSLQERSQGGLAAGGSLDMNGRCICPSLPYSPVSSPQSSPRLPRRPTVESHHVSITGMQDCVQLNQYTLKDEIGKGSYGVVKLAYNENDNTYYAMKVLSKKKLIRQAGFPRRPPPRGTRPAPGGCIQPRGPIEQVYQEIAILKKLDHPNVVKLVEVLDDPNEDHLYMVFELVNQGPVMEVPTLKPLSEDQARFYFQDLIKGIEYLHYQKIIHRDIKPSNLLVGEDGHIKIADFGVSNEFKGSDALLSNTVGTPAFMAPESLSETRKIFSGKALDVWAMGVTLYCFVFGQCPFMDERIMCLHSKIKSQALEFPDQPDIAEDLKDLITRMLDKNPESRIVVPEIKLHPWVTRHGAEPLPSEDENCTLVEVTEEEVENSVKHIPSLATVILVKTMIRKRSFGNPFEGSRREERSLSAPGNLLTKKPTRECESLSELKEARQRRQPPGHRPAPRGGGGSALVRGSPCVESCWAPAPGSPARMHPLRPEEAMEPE

[5] = target: Casein kinase I isoform gamma-1 (Homo sapiens) (UniProt Q9HCP0); experiment: Selectivity interaction (SelectScreen profiling (Invitrogen)) EUB0000607a CSNK1G1; settings: at 2 µM
Chain of Casein kinase I isoform gamma-1 (Homo sapiens) (Q9HCP0 whole entry, looked up, canonical isoform): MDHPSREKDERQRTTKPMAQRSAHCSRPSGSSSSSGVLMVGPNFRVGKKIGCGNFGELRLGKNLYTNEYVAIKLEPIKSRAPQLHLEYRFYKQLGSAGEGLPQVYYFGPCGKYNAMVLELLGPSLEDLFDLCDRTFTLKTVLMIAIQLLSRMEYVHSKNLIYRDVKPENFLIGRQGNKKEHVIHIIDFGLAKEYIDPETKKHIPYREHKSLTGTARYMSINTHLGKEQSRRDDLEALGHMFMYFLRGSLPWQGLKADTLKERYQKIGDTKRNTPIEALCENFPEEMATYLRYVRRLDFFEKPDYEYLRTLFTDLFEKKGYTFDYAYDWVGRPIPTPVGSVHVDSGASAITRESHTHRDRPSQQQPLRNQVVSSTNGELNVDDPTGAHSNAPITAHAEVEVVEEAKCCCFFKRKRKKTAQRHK

[6] = target: T3, Serine/threonine-protein kinase TAO2 (Homo sapiens) (UniProt Q9UL54); experiment: Selectivity interaction (KinomeScan (DiscoverX)) EUB0001049a TAOK2; settings: at 1 µM
T3 sequence (whole entry): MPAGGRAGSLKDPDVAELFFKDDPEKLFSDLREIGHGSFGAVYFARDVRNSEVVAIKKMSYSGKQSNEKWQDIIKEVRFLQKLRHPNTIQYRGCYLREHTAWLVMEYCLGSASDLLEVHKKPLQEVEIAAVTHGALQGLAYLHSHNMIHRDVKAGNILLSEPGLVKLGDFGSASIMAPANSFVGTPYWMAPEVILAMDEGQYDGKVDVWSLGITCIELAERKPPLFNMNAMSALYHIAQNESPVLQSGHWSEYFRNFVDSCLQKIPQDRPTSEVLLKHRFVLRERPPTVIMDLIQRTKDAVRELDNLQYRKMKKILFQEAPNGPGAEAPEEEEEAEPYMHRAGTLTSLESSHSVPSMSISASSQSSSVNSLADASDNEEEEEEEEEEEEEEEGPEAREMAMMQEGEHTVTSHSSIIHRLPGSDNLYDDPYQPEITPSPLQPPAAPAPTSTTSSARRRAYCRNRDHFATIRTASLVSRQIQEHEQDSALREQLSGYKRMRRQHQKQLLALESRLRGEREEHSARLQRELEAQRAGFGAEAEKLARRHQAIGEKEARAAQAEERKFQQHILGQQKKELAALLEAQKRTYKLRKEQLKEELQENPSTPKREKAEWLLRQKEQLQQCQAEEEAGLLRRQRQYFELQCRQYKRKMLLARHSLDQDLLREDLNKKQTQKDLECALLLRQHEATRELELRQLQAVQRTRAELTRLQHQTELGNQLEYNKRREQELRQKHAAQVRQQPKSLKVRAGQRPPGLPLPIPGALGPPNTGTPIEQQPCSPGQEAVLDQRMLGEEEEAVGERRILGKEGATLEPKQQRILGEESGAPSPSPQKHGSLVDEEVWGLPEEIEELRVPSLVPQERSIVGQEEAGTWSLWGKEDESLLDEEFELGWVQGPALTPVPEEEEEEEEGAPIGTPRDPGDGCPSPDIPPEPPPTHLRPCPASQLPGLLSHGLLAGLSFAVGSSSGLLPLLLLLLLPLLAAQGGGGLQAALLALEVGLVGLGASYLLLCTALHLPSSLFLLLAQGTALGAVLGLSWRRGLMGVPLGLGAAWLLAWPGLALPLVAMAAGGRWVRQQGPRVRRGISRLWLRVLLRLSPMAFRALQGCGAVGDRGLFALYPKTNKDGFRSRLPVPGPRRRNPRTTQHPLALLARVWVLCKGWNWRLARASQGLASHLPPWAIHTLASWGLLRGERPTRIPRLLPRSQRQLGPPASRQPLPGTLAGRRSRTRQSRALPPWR

Work on CCN(CC)CCCCNc1ncc2cc(-c3cc(OC)cc(OC)c3)c(NC(=O)NC(C)(C)C)nc2n1 yielded a % of control [1] of 100%.
Work on COc1cc(N(C)c2ccnc3ccc(C(F)(F)F)cc23)cc(OC)c1OC yielded a % binding [2] of 100%.
For Cn1cc(-n2cnc3c(NCc4nc5cc(Cl)c(Cl)cc5[nH]4)nc(N4CCOCC4)nc32)cn1, the % of inhibition [3] was 1.38%.
CNC(=O)Nc1ccc(-c2nc(N3CC4CCC(C3)O4)c3cnn(C4CCC5(CC4)OCCO5)c3n2)cc1 showed a % of control [4] of 100% and a % of inhibition [5] of -2%.
COc1cc(Nc2nc(C)cc(-c3cnn4nc(OC)ccc34)n2)cc(C(F)(F)F)c1 gave a % of control [6] of 77%.
